Data: US20110166297A1, “MOLECULARLY IMPRINTED SMART POLYMERS (MISPs)” (Sailo Nanotechnologies Ltd., priority 2008, published 2011)

Assay: Solubility of Erg-TAD-Py (dissolved concentration by HPLC)
Type: physicochemical

SMILES: CC(C)[C@@H](C)/C=C/[C@@H](C)C1CCC2C34C=CC5(C[C@@H](O)CC[C@]5(C)C3CC[C@]12C)n1c(=O)n(CCCc2ccc3ccc5cccc6ccc2c3c56)c(=O)n14 (some centres unmarked) [Erg-TAD-Py, Ergosterol-triazolinedione-pyrene]
- Concentration of dissolved Erg-TAD-Py (10% DMSO in serum (inactivated fetal calf serum)): 7800 ng/mL
- Concentration of dissolved Erg-TAD-Py (10% DMSO in water): 700 ng/mL
- Concentration of dissolved Erg-TAD-Py (30% DMSO in serum (inactivated fetal calf serum)): 8400 ng/mL
- Concentration of dissolved Erg-TAD-Py (30% DMSO in water): 6700 ng/mL
- Concentration of dissolved Erg-TAD-Py (50% DMSO in serum (inactivated fetal calf serum)): 6800 ng/mL
- Concentration of dissolved Erg-TAD-Py (50% DMSO in water): 6000 ng/mL
- Concentration at which ethanol dissolves Erg-TAD-Py: 50000 ng/mL
- Concentration at which ethanol dissolves Erg-TAD-Py (molar equivalent of 0.05 mg/ml): about 60 uM
